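All cell lines were grown in 96-well plates and treated with compound for 48 hours. GI50: concentration for 50% inhibition of growth.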 Activity calls are given as the source filed them. Rule as the data show it: active = GI50 up to about 1.1 µM and inactive = higher.
Key:
Experiment in all cases: NCI tumour cell line growth inhibition, 48 h
[1] = system: SK-MEL-5
[2] = system: Malme-3M
[3] = system: SF-295
[4] = system: HL-60
[5] = system: SF-539
[6] = system: TK-10
[7] = system: XF498
[8] = system: SF-268
[9] = system: MOLT-4
[10] = system: SNB-19
[11] = system: M14
[12] = system: SW-620
[13] = system: IGROV-1
[14] = system: SK-MEL-2
[15] = system: COLO 205
[16] = system: NCI-H226
[17] = system: EKVX
[18] = system: ACHN
[19] = system: RXF 631
[20] = system: SK-MEL-28
[21] = system: U-251
[22] = system: HOP-62
[23] = system: DMS-114
[24] = system: SN12C
[25] = system: CCRF-CEM
[26] = system: RXF 393
[27] = system: NCI-H522
[28] = system: UACC-257
[29] = system: HOP-92
[30] = system: 786-0
[31] = system: HCC 2998
[32] = system: SNB-78
[33] = system: UO-31
[34] = system: CAKI-1
[35] = system: OVCAR-8
[36] = system: KM-20L2
[37] = system: UACC-62
[38] = system: NCI-H460
[39] = system: DLD-1
[40] = system: NCI-H23
[41] = system: LXFL 529
[42] = system: RPMI-8226
[43] = system: OVCAR-3
[44] = system: HT-29
[45] = system: A498
[46] = system: SNB-75
[47] = system: M19-MEL
[48] = system: HOP-18
[49] = system: DMS-273
[50] = system: KM12
[51] = system: HCT-116
[52] = system: LOX IMVI
[53] = system: HCT-15
[54] = system: OVCAR-5
[55] = system: SK-OV-3
[56] = system: K562
[57] = system: A549
[58] = system: OVCAR-4
[59] = system: SR

CC(=O)NC(Cc1ccccc1)C(=S)N1CCCC1 (configuration not stated)
GI50 [1]: > 100 µM (inactive)
GI50 [2]: > 100 µM (inactive)
GI50 [3]: > 100 µM (inactive)
GI50 [4]: > 100 µM (inactive)
GI50 [5]: > 100 µM (inactive)
GI50 [6]: > 100 µM (inactive)
GI50 [7]: > 100 µM (inactive)
GI50 [8]: > 100 µM (inactive)
GI50 [9]: > 100 µM (inactive)
GI50 [10]: > 100 µM (inactive)
GI50 [11]: > 100 µM (inactive)
GI50 [12]: > 100 µM (inactive)
GI50 [13]: > 100 µM (inactive)
GI50 [14]: > 100 µM (inactive)
GI50 [15]: > 100 µM (inactive)
GI50 [16]: > 100 µM (inactive)
GI50 [17]: > 100 µM (inactive)
GI50 [18]: > 100 µM (inactive)
GI50 [19]: > 100 µM (inactive)
GI50 [20]: > 100 µM (inactive)
GI50 [21]: > 100 µM (inactive)
GI50 [22]: > 100 µM (inactive)
GI50 [23]: > 100 µM (inactive)
GI50 [24]: > 100 µM (inactive)
GI50 [25]: > 100 µM (inactive)
GI50 [26]: > 100 µM (inactive)
GI50 [27]: > 100 µM (inactive)
GI50 [28]: > 100 µM (inactive)
GI50 [29]: > 80.5 µM (inactive)
GI50 [30]: > 100 µM (inactive)
GI50 [31]: > 100 µM (inactive)
GI50 [32]: > 100 µM (inactive)
GI50 [33]: > 100 µM (inactive)
GI50 [34]: > 100 µM (inactive)
GI50 [35]: > 100 µM (inactive)
GI50 [36]: > 100 µM (inactive)
GI50 [37]: > 100 µM (inactive)
GI50 [38]: > 100 µM (inactive)
GI50 [39]: > 100 µM (inactive)
GI50 [40]: > 100 µM (inactive)
GI50 [41]: > 100 µM (inactive)
GI50 [42]: > 100 µM (inactive)
GI50 [43]: > 100 µM (inactive)
GI50 [44]: > 100 µM (inactive)
GI50 [45]: > 100 µM (inactive)
GI50 [46]: 55.3 µM (inactive)
GI50 [47]: > 100 µM (inactive)
GI50 [48]: 15.3 µM (inactive)
GI50 [49]: > 100 µM (inactive)
GI50 [50]: > 100 µM (inactive)
GI50 [51]: > 100 µM (inactive)
GI50 [52]: > 100 µM (inactive)
GI50 [53]: > 100 µM
GI50 [54]: > 100 µM (inactive)
GI50 [55]: > 100 µM (inactive)
GI50 [56]: > 100 µM (inactive)
GI50 [57]: > 100 µM (inactive)
GI50 [58]: > 100 µM (inactive)

COC(=O)C(C(=O)C(=O)Nc1ccccc1OC)c1csc(-n2nc(-c3ccccc3)cc2-c2ccccc2)n1 (configuration not stated)
GI50 [2]: > 100 µM (inactive)
GI50 [4]: > 100 µM (inactive)
GI50 [6]: > 100 µM (inactive)
GI50 [7]: > 100 µM (inactive)
GI50 [8]: > 100 µM (inactive)
GI50 [9]: 65.2 µM (inactive)
GI50 [10]: > 100 µM (inactive)
GI50 [11]: > 100 µM (inactive)
GI50 [12]: > 100 µM (inactive)
GI50 [13]: > 100 µM (inactive)
GI50 [15]: > 100 µM (inactive)
GI50 [16]: > 100 µM (inactive)
GI50 [17]: 43.1 µM (inactive)
GI50 [18]: > 100 µM (inactive)
GI50 [19]: > 100 µM (inactive)
GI50 [21]: > 100 µM (inactive)
GI50 [22]: > 100 µM (inactive)
GI50 [23]: 49.5 µM (inactive)
GI50 [24]: > 100 µM (inactive)
GI50 [25]: > 100 µM (inactive)
GI50 [26]: 89.5 µM (inactive)
GI50 [27]: > 100 µM (inactive)
GI50 [28]: > 100 µM (inactive)
GI50 [59]: 90.8 µM (inactive)
GI50 [29]: > 100 µM (inactive)
GI50 [30]: > 100 µM (inactive)
GI50 [31]: > 100 µM (inactive)
GI50 [32]: > 100 µM (inactive)
GI50 [33]: 54.7 µM (inactive)
GI50 [34]: > 100 µM (inactive)
GI50 [35]: > 100 µM (inactive)
GI50 [36]: > 100 µM (inactive)
GI50 [37]: > 100 µM (inactive)
GI50 [38]: > 100 µM (inactive)
GI50 [39]: > 100 µM (inactive)
GI50 [40]: > 100 µM (inactive)
GI50 [41]: > 100 µM (inactive)
GI50 [42]: > 100 µM (inactive)
GI50 [43]: > 100 µM (inactive)
GI50 [44]: 59.3 µM (inactive)
GI50 [45]: > 100 µM (inactive)
GI50 [46]: 8.97 µM (inactive)
GI50 [47]: > 100 µM (inactive)
GI50 [48]: 14.8 µM (inactive)
GI50 [49]: > 100 µM (inactive)
GI50 [50]: 95.9 µM (inactive)
GI50 [51]: > 100 µM (inactive)
GI50 [52]: > 100 µM (inactive)
GI50 [53]: > 100 µM
GI50 [54]: > 100 µM (inactive)
GI50 [55]: > 100 µM (inactive)
GI50 [56]: > 100 µM (inactive)
GI50 [57]: > 100 µM (inactive)
GI50 [58]: > 100 µM (inactive)
